These results are taken from patent publication US20240199676A1, “ANTIVIRAL COMPOUNDS AND METHODS OF MAKING AND USING THE SAME” (Gilead Sciences, Inc., priority 2022, published 2024).

The test deals with Respiratory syncytial virus recombinant with luciferase (RSV-Luc5) in HEp-2 cells. As to the kind of experiment: HEp-2 RSV-Luc5 384-well Assay (EC50 RSVFLUC Hep2-384, Ex. R). In kind it is cell-based. To be noted: human respiratory syncytial virus, HEp-2, 72 h, read-out: RSV Hep-2 FLuc EC50 (per Ex. R). The source says:
Example R. HEp-2 RSV-Luc5 384-well Assay (EC50 RSVFLUC Hep2-384)
HEp-2 cell line was purchased from ATCC (Manassas, VA Cat #CCL-23) and maintained in Dulbecco's […] (DMEM) (Corning, New York, NY, Cat #15-018CM) supplemented with 10% fetal bovine serum (FBS) (Hyclone, Logan, UT, Cat #SH30071-03) and 1× Penicillin-Streptonycin-L-Glutamine (Corning, New York, NY, Cat #30-009-CI). Cells were passaged 2 times per week to maintain sub-confluent densities and were used for experiments at passage 5-20. Respiratory syncytial virus recombinant with luciferase (RSV-Luc5) direct pelleted virus (≥1×107 TCID50/ml) was purchased from Microbiologics (Saint Cloud, MN). Viral replication was determined in HEp-2 cells in the following manner.
Compounds are prepared in 384-well polypropylene plates (Greiner, Monroe, NC, Cat#784201) with 8 compounds per plate in grouped replicates of 4 at 10 serially diluted concentrations (1:3).
HEp-2 cells were suspended in DMEM (supplemented with 10% FBS and 1× Penicillin-Streptomycin-L-Glutanine) and 60 uL of 4,000 cells per well were seeded into 384-well plates (Greiner, Monroe, NC, Cat #781080) using Biotek MultiFlo dispenser. […] Viral replication was then assessed by measuring luminescence signal using and Envision plate reader. […]

The EC50 is the concentration giving half of the maximal effect. With `CC(C)C(=O)OC[C@@]1(C#N)O[C@@H](c2ccc3c(N)ncnn23)[C@H](O)[C@@H]1O` [Compound 1, ((2R,3S,4R,5S)-5-(4-aminopyrrolo[2,1-f][1,2,4]triazin-7-yl)-2-cyano-3,4-dihydroxytetrahydrofuran-2-yl)methyl isobutyrate], the EC50 was 10.4 µM.
